This passage reports IC50 results from US11702422B2, “Imidazopyridazines as modulators of IL-17” (Janssen Pharmaceutica NV, priority 2020, dated 2023).

Experiment [1] has as its system IL-17A-induced G-CSF production in human normal keratinocyte (NHK). Put plainly: NHK Assay: IL-17A-induced G-CSF production in human normal keratinocytes. The class given is cell-based. To be noted: adult normal human keratinocytes, IL-17A 5 ng/mL, 24 h, simple average if tested more than once. Put shortly: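 IL-17A (5 ng/mL final) was pre-incubated 1 h at rt with titrated compound and then added to adult normal human keratinocytes (5% FBS, 0.2% DMSO) for 24 h at 37° C. Supernatant G-CSF was measured by HTRF against a standard curve to derive IC50. Viability was checked by CellTiter-Glo.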

For experiment [2], the target named is IL-17A(FLAG-Tagged): IL-17RA(His-Tagged) (Homo sapiens, UniProt Q16552, K93Q). Put plainly: IL-17A(FLAG-Tagged): IL-17RA(His-Tagged) Binding Disruption Eu-HTRF Assay. To be noted: IL-17A/IL-17RA binding disruption, simple average if tested more than once. Put shortly:
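IC50 comes from a one-site competition fit of the HTRF 665/620 nm ratio. Compound dilutions (2-fold, 22 points) were held 1 h rt with FLAG-tagged IL-17A dimer, then His-tagged IL-17RA plus Eu-cryptate anti-FLAG and D2 anti-His antibodies were added for 2 h rt.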

Some results are limits rather than exact numbers.

Chain of UniProt Q16552 (Q16552 with tags, fused parts or gaps K93Q): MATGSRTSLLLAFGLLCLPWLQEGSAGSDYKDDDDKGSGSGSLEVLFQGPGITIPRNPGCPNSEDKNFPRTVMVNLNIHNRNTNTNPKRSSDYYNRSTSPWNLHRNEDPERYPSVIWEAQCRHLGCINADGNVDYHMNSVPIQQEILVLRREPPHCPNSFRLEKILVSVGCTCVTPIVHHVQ

The IC50 is the midpoint of a concentration-inhibition curve. Lower therefore signals inhibition by little substance. Consider `Cc1nonc1C(=O)N[C@H](c1cn2ncc(C(NC(=O)CCC(F)(F)F)C(C)C)cc2n1)C1CCC(F)(F)CC1` (single isomer, unassigned) [Example 546, N—((S)-(4,4-Difluorocyclohexyl)(7-((R*)-2-methyl-1-(4,4,4-trifluorobutanamido)propyl)imidazo[1,2-b]pyridazin-2-yl)methyl)-4-methyl-1,2,5-oxadiazole-3-carboxamide], for which the IC50 in experiment [1] was greater than 20 µM; in experiment [2], 0.64 µM.

With `O=C(CCC(F)(F)F)NC(c1cnn2cc([C@@H](NC(=O)c3cnn(CC4CC4)n3)C3CCC(F)(F)CC3)nc2c1)C1CC1` (stereo in doubt) [Example 25, N—((S)-(7-((R*)-Cyclopropyl(4,4,4-trifluorobutanamido)methyl)imidazo[1,2-b]pyridazin-2-yl)(4,4-difluorocyclohexyl)methyl)-2-(cyclopropylmethyl)-2H-1,2,3-triazole-4-carboxamide], the IC50 in experiment [1] (Homo sapiens, Keratinocyte) worked out at 0.35 µM; in experiment [2], 0.071 µM.

Consider `O=C(CC1CC(F)(F)C1)NC(c1cnn2cc([C@@H](NC(=O)c3cnn(CC(F)(F)F)n3)C3CCC(F)(F)CC3)nc2c1)C1CC1` (stereo in doubt) [Example 28, N—((S)-(7-((R*)-Cyclopropyl(2-(3,3-difluorocyclobutyl)acetamido)methyl)imidazo[1,2-b]pyridazin-2-yl)(4,4-difluorocyclohexyl)methyl)-2-(2,2,2-trifluoroethyl)-2H-1,2,3-triazole-4-carboxamide], for which the IC50 in experiment [1] (Homo sapiens, Keratinocyte) turned out to be 0.39 µM; in experiment [2], 0.09 µM.

For `O=C(CCC(F)(F)F)N[C@H](c1cnn2cc([C@H](NC(=O)c3conc3C3CCCC3)C3CCC(F)(F)CC3)nc2c1)C1CC1` (stereo in doubt) [Example 117, 3-Cyclopentyl-N—((R)-(7-((S)-cyclopropyl(4,4,4-trifluorobutanamido)methyl)imidazo[1,2-b]pyridazin-2-yl)(4,4-difluorocyclohexyl)methyl)isoxazole-4-carboxamide], the IC50 in experiment [1] (Homo sapiens, Keratinocyte) came to 0.12 µM; in experiment [2], 0.049 µM.

For `CC(C)C(NC(=O)CC1CC(F)(F)C1)c1cnn2cc([C@@H](NC(=O)c3nonc3OCC(F)F)C3CCC(F)(F)CC3)nc2c1` (stereo in doubt) [Example 514, N—((S)-(7-((S*)-1-(2-(3,3-Difluorocyclobutyl)acetamido)-2-methylpropyl)imidazo[1,2-b]pyridazin-2-yl)(4,4-difluorocyclohexyl)methyl)-4-(2,2-difluoroethoxy)-1,2,5-oxadiazole-3-carboxamide], the IC50 in experiment [1] (Homo sapiens, Keratinocyte) is 0.042 µM; in experiment [2], 0.087 µM.

As for `CC(C)n1ncnc1C(=O)N[C@H](c1cn2ncc(C(NC(=O)CC3CC(F)(F)C3)C3CCOCC3)cc2n1)C1CCC(F)(F)CC1` (stereo in doubt) [Example 537, N—((S)-(7-((R*)-(2-(3,3-Difluorocyclobutyl)acetamido)(tetrahydro-2H-pyran-4-yl)methyl)imidazo[1,2-b]pyridazin-2-yl)(4,4-difluorocyclohexyl)methyl)-1-isopropyl-1H-1,2,4-triazole-5-carboxamide], the IC50 in experiment [1] (Homo sapiens, Keratinocyte) was 0.15 µM; in experiment [2], 0.15 µM.

With `O=C(CCC(F)(F)F)N[C@@H](c1cnn2cc([C@@H](NC(=O)c3cnn(CC4CCC4(F)F)n3)C3CCC(F)(F)CC3)nc2c1)C1CC1` (stereo partly shown) [Example 4], the IC50 was found to be 0.37 µM in experiment [1] (Homo sapiens, Keratinocyte) and 0.1 µM in experiment [2].

For the compound `O=C(CCC(F)(F)F)NCc1cnn2cc([C@@H](NC(=O)c3ccccc3)C3CCC(F)(F)CC3)nc2c1` [Example 5, (S)—N-((4,4-Difluorocyclohexyl)(7-((4,4,4-trifluorobutanamido)methyl)imidazo[1,2-b]pyridazin-2-yl)methyl)benzamide], the IC50 in experiment [1] (Homo sapiens, Keratinocyte) amounted to 1.9 µM; in experiment [2] it was 1.1 µM.

Take `O=C(CCC(F)(F)F)N[C@@H](c1cnn2cc([C@@H](NC(=O)c3cnn(CCC(F)F)n3)C3CCC(F)(F)CC3)nc2c1)C1CC1` [Example 32, N—((S)-(7-((R)-Cyclopropyl(4,4,4-trifluorobutanamido)methyl)imidazo[1,2-b]pyridazin-2-yl)(4,4-difluorocyclohexyl)methyl)-2-(3,3-difluoropropyl)-2H-1,2,3-triazole-4-carboxamide]: the IC50 turned out to be 0.24 µM in experiment [1] (Homo sapiens, Keratinocyte) and 0.14 µM in experiment [2].

As to `O=C(CCC(F)(F)F)N[C@@H](c1cnn2cc([C@@H](NC(=O)c3ncn(CCC(F)(F)F)n3)C3CCC(F)(F)CC3)nc2c1)C1CC1` [Example 33, N—((S)-(7-((R)-Cyclopropyl(4,4,4-trifluorobutanamido)methyl)imidazo[1,2-b]pyridazin-2-yl)(4,4-difluorocyclohexyl)methyl)-1-(3,3,3-trifluoropropyl)-1H-1,2,4-triazole-3-carboxamide], the IC50 is greater than 20 µM in experiment [1] (Homo sapiens, Keratinocyte) and 4.5 µM in experiment [2].

In the case of `O=C(CCC(F)(F)F)N[C@@H](c1cnn2cc([C@@H](NC(=O)c3cnnn3CCOC(F)F)C3CCC(F)(F)CC3)nc2c1)C1CC1` [Example 34, N—((S)-(7-((R)-Cyclopropyl(4,4,4-trifluorobutanamido)methyl)imidazo[1,2-b]pyridazin-2-yl)(4,4-difluorocyclohexyl)methyl)-1-(2-(difluoromethoxy)ethyl)-1H-1,2,3-triazole-5-carboxamide], the IC50 came out at 0.064 µM in experiment [1] (Homo sapiens, Keratinocyte) and 0.18 µM in experiment [2].

On to `O=C(CCC(F)(F)F)N[C@@H](c1cnn2cc([C@@H](NC(=O)c3cnn(CCOC(F)F)n3)C3CCC(F)(F)CC3)nc2c1)C1CC1` [Example 35, N—((S)-(7-((R)-Cyclopropyl(4,4,4-trifluorobutanamido)methyl)imidazo[1,2-b]pyridazin-2-yl)(4,4-difluorocyclohexyl)methyl)-2-(2-(difluoromethoxy)ethyl)-2H-1,2,3-triazole-4-carboxamide], for which the IC50 in experiment [1] (Homo sapiens, Keratinocyte) was found to be 0.2 µM; in experiment [2] it was 0.12 µM.

As for `O=C(CCC(F)(F)F)N[C@@H](c1cnn2cc([C@@H](NC(=O)c3cnn(CCOC(F)(F)F)c3)C3CCC(F)(F)CC3)nc2c1)C1CC1` [Example 36, N—((S)-(7-((R)-Cyclopropyl(4,4,4-trifluorobutanamido)methyl)imidazo[1,2-b]pyridazin-2-yl)(4,4-difluorocyclohexyl)methyl)-1-(2-(trifluoromethoxy)ethyl)-1H-pyrazole-4-carboxamide], the IC50 turned out to be 0.12 µM in experiment [1] (Homo sapiens, Keratinocyte) and 0.14 µM in experiment [2].

`O=C(CCC(F)(F)F)N[C@@H](c1cnn2cc([C@@H](NC(=O)c3cnn(CCOC(F)F)c3)C3CCC(F)(F)CC3)nc2c1)C1CC1` [Example 37, N—((S)-(7-((R)-Cyclopropyl(4,4,4-trifluorobutanamido)methyl)imidazo[1,2-b]pyridazin-2-yl)(4,4-difluorocyclohexyl)methyl)-1-(2-(difluoromethoxy)ethyl)-1H-pyrazole-4-carboxamide]: the IC50 in experiment [1] (Homo sapiens, Keratinocyte) is 0.63 µM; in experiment [2], 0.23 µM.

For the compound `O=C(CCC(F)(F)F)N[C@@H](c1cnn2cc([C@@H](NC(=O)c3ncnn3CCC(F)(F)F)C3CCC(F)(F)CC3)nc2c1)C1CC1` [Example 38, N—((S)-(7-((R)-Cyclopropyl(4,4,4-trifluorobutanamido)methyl)imidazo[1,2-b]pyridazin-2-yl)(4,4-difluorocyclohexyl)methyl)-1-(3,3,3-trifluoropropyl)-1H-1,2,4-triazole-5-carboxamide], the IC50 in experiment [1] (Homo sapiens, Keratinocyte) stood at 0.4 µM; in experiment [2], 0.078 µM.

In the case of `O=C(CCC(F)(F)F)N[C@@H](c1cnn2cc([C@@H](NC(=O)c3ncnn3CC3CC3)C3CCC(F)(F)CC3)nc2c1)C1CC1` [Example 39, N—((S)-(7-((R)-Cyclopropyl(4,4,4-trifluorobutanamido)methyl)imidazo[1,2-b]pyridazin-2-yl)(4,4-difluorocyclohexyl)methyl)-1-(cyclopropylmethyl)-1H-1,2,4-triazole-5-carboxamide], the IC50 in experiment [1] (Homo sapiens, Keratinocyte) came out at 0.43 µM; in experiment [2], 0.11 µM.

For `Cc1ccccc1C(=O)N[C@H](c1cn2ncc([C@H](NC(=O)CCC(F)(F)F)C3CC3)cc2n1)C1CCC(F)(F)CC1` [Example 40, N—((S)-(7-((R)-Cyclopropyl(4,4,4-trifluorobutanamido)methyl)imidazo[1,2-b]pyridazine-2-yl)(4,4-difluorocyclohexyl)methyl)-2-methylbenzamide], the IC50 came to 1.2 µM in experiment [1] (Homo sapiens, Keratinocyte) and 0.41 µM in experiment [2].

On to `CCc1ccccc1C(=O)N[C@H](c1cn2ncc([C@H](NC(=O)CCC(F)(F)F)C3CC3)cc2n1)C1CCC(F)(F)CC1` [Example 41, N—((S)-(7-((R)-Cyclopropyl(4,4,4-trifluorobutanamido)methyl)imidazo[1,2-b]pyridazin-2-yl)(4,4-difluorocyclohexyl)methyl)-2-ethylbenzamide], for which the IC50 was determined as 2 µM in experiment [1] (Homo sapiens, Keratinocyte) and 0.35 µM in experiment [2].

Turning to `O=C(CCC(F)(F)F)N[C@@H](c1cnn2cc([C@@H](NC(=O)c3ccccc3Cl)C3CCC(F)(F)CC3)nc2c1)C1CC1` [Example 42, 2-Chloro-N—((S)-(7-((R)-cyclopropyl(4,4,4-trifluorobutanamido)methyl)imidazo[1,2-b]pyridazin-2-yl)(4,4-difluorocyclohexyl)methyl)benzamide], the IC50 in experiment [1] (Homo sapiens, Keratinocyte) stood at 2.2 µM; in experiment [2], 0.41 µM.

Consider `O=C(CCC(F)(F)F)N[C@@H](c1cnn2cc([C@@H](NC(=O)C3CC34CC4)C3CCC(F)(F)CC3)nc2c1)C1CC1` (stereo partly drawn) [Example 44, N—((S)-(7-((R)-Cyclopropyl(4,4,4-trifluorobutanamido)methyl)imidazo[1,2-b]pyridazin-2-yl)(4,4-difluorocyclohexyl)methyl)spiro[2.2]pentane-1-carboxamide], for which the IC50 is 1.4 µM in experiment [1] (Homo sapiens, Keratinocyte) and 0.74 µM in experiment [2].
